Measured values from PubChem BioAssay AID1996.
In brackets after ≈: the same amount, converted by molar mass.

Conditions: buffer; pH 7.4; 200.0 µM

solubility kinetic [µg/mL]	SMILES
> 46.6	COc1ccc(CNC2CCN(Cc3ccccc3)CC2)cc1
> 56	COc1ccc(N2C(=O)NC(NC(=O)C(C)(C)C)(C(F)(F)F)C2=O)cc1 (centres undefined)
9.4 (≈ 26.7 µM)	Nc1ccc(S(=O)(=O)Nc2ccc(C(=O)c3ccccc3)cc2)cc1
> 69.1	Cc1ccc(S(=O)(=O)Nc2cccc(S(=O)(=O)Nc3ccccc3C(=O)O)c2)c(C)c1
39.3 (≈ 131 µM)	Cc1cccc2nc(CSc3ncccc3C(=O)O)cn12
2.6 (≈ 8.92 µM)	COc1ccc(C(=O)CNc2ccc3ccccc3c2)cc1
66.4 (≈ 148 µM)	CCOc1ccc(NS(=O)(=O)c2cc(C(=O)NCCN3CCOCC3)ccc2C)cc1
< 0.4	CCOc1ccccc1NC(=O)c1ccc2c(c1)C(=O)N(CC)C2=O
> 59.6	O=C(COC(=O)C1CC(=O)N(Cc2ccccc2)C1)Nc1cccc([N+](=O)[O-])c1 (centres undefined)
> 44	Cc1ccc(S(=O)(=O)NC(=O)c2ccccc2F)cc1
< 0.7	COc1ccc(C(=O)Nc2cc(OC)c(Cl)cc2OC)cc1
1.4 (≈ 4.61 µM)	CC(=O)Nc1ccc(NC(=O)Nc2cccc(Cl)c2)cc1
2.7 (≈ 8.35 µM)	CN(Cc1ccccc1)c1c([N+](=O)[O-])c(=O)n(C)c2ccccc12
> 49.1	Cc1ccc(OCC(=O)NCCCNC(=O)c2cccnc2)cc1
14.4 (≈ 27.5 µM)	COc1ccccc1N(CC(=O)Nc1cc(S(=O)(=O)N(C)C)ccc1C)S(=O)(=O)c1cccs1
3.4 (≈ 9.87 µM)	O=C(COc1ccccc1)N1CCN=C1SCc1cccc(F)c1
> 50.5	O=C1Nc2ccc(S(=O)(=O)N(CCO)CCO)c3cccc1c23

solubility kinetic [µg/mL]	SMILES
> 53.9	COc1ccc(OCC(O)CN(C)C(=O)C(C)Oc2ccccc2)cc1 (centres undefined)
25.9 (≈ 79.4 µM)	CC(C)CNC(=O)c1ccc2c(c1)C(=O)N(Cc1ccco1)C2=O
> 58.6	CN(C)S(=O)(=O)c1cccc(NC(=O)CCNC(=O)Nc2ccccc2)c1
25.1 (≈ 102 µM)	COc1ccccc1Oc1ccccc1[N+](=O)[O-]
11 (≈ 27.9 µM)	CC(C)N(Cc1ccccc1)C(=O)CN1c2cccc3cccc(c23)S1(=O)=O
> 42	O=C(O)Cn1c(=O)c(-c2ccccc2)nc2ccccc21
53.6	Cc1cc(=O)oc2cc(OCCC[n+]3ccccc3)ccc12.[Br-]
> 47.3	O=C(Nc1ccccc1C(=O)NC1CC1)c1ccc([N+](=O)[O-])o1
48.6 (≈ 145 µM)	Cc1ccc(CNC(=O)c2ccc(S(=O)(=O)N(C)C)cc2)n1C
44.3 (≈ 135 µM)	COc1ccc(C(CC(=O)N2CCCC2)c2ccc(F)cc2)cc1 (centres undefined)
10.7 (≈ 32.2 µM)	CCOc1ccc(S(=O)(=O)N2CC(=O)Nc3ccccc32)cc1
56.7 (≈ 131 µM)	C=CCN(c1ccccc1OC)S(=O)(=O)c1cccc(C(=O)OC2CCOC2=O)c1 (centres undefined)
4.9 (≈ 14.5 µM)	COc1ccc(NCC(=O)n2c(C)c(C)c3ccccc32)cc1OC
52.9 (≈ 148 µM)	O=C(O)CCN1C(=O)c2ccc(Oc3ccc([N+](=O)[O-])cc3)cc2C1=O
> 39.5	NC(=O)c1ccc(OCC(=O)N2CCNC2=O)cc1
43.9 (≈ 141 µM)	COc1cccc(CC(=O)Nc2ccccc2N2CCCC2)c1

Second part, the compound before the results:

SMILES	solubility kinetic [µg/mL]
Cc1ccc(NC(=O)COC(=O)c2cccnc2)c(C)c1	> 42.6
O=C(/C=C/c1ccccc1)Oc1coc(CSc2ncccn2)cc1=O	10.2 (≈ 27.8 µM)
CN(CCC#N)C(=O)COc1ccc(Br)cc1Cl	> 49.7
CSCCC(NC(=O)c1ccco1)C(=O)NCC1CCCCC1 (centres undefined)	> 50.8
NC(=S)NC1CC2C=CC1C2 (centres undefined)	> 25.2
O=C(NCC1CCCO1)c1cncc(Br)c1 (centres undefined)	> 42.8
COc1ccc(NC(C)=O)c(C)c1	> 26.9
Cc1ccc(Cl)cc1N1CCN(C(=S)NCc2ccco2)CC1	1 (≈ 2.86 µM)
Cc1ccccc1N1CCN(CC(=O)NCc2ccc(Cl)cc2)CC1	19.6 (≈ 54.8 µM)
O=S(=O)(c1ccc2ccccc2c1)N1CCNCC1	32.7 (≈ 118 µM)
COCCN(C(=O)CSc1ccc2c(c1)OCCO2)c1c(N)n(CC(C)C)c(=O)[nH]c1=O	> 69.7
CC(C)(C)c1ccc(/C=C/C(=O)NC2CCS(=O)(=O)C2)cc1 (centres undefined)	> 48.2
COc1cc2c(cc1OC)CN(C(=O)c1sccc1C)CC2	45.8 (≈ 144 µM)
O=C(c1cc2cc(F)ccc2[nH]1)N1CCc2ccccc21	1.4 (≈ 4.99 µM)
CCOC(=O)c1cc(C#N)c(C)nc1N(CC)CC	16.4 (≈ 62.8 µM)
Cc1ccccc1Nc1nc(N)nc(CSc2n[nH]c(N)n2)n1	> 49.4
COc1ccc(-c2csc(Nc3ccc(C)cn3)n2)cc1OC	1.3 (≈ 3.97 µM)
COc1ccc2nc(N3C(=O)CNC3=S)sc2c1	19.5 (≈ 69.8 µM)
CC1CCCN(C(=O)c2ccc3c(c2)OCO3)C1 (centres undefined)	> 37.1
CCOc1ccc2oc(C(=O)NCC(C)(C)CN(C)C)c(C)c2c1.Cl	48.4
Clc1ccc(-c2noc(/C=C/c3ccccc3)n2)cc1	< 0.3
CC1(C)CC(=O)C=C(Nc2ccc(Cl)cc2)C1	34.2 (≈ 137 µM)
Cc1[nH]c2ccccc2c1CCNC(=O)c1ccc2nccnc2c1	41.1 (≈ 124 µM)
CC(=O)Nc1ncc(Cc2ccc(Cl)cc2Cl)s1	1 (≈ 3.32 µM)
O/C=c1\ccc2cccc3nc(C(F)(F)F)nc1c23	5.5 (≈ 20.8 µM)
CCc1sc(C(=O)N2CCN(c3ccc(F)cc3)CC2)cc1C	10.7 (≈ 32.2 µM)

SMILES	solubility kinetic [µg/mL]
Cc1ccc(C(=O)O/N=C(\N)c2ccccn2)c(Cl)c1	42.4 (≈ 146 µM)
CC(C)(C)C(=O)N(Cc1ccc(Cl)cc1)Cc1cccnc1	42.6 (≈ 134 µM)
O=C(c1cccc(S(=O)(=O)N2CCc3ccccc32)c1)N1CCOCC1	54.8 (≈ 147 µM)
COC(=O)[C@H](Cc1ccccc1)NC(=O)N1CCCCC1	> 43.6
CCC(C)(CC(=O)Nc1nccs1)c1ccccc1 (centres undefined)	> 41.2
O=C(c1ccc(F)cc1)N1CCC(c2ccccc2)C1 (centres undefined)	39.8 (≈ 148 µM)
CN1CCC(CN)(N2CCN(c3ccccc3)CC2)CC1	41.9 (≈ 145 µM)
O=C(COC(=O)C1(c2ccccc2F)CCCC1)N1CCNC1=O	> 50.2
O=C(NCc1cccnc1)C1CC(c2ccccc2O)=NO1 (centres undefined)	> 44.6
CNS(=O)(=O)c1cccc(C(=O)OCC(=O)Nc2nc(OC)cc(OC)n2)c1	15 (≈ 36.5 µM)
CS(=O)(=O)N1CCc2cc(C(=O)N3CCCC3)ccc21	> 44.2
O=C(O)[C@H](Cc1ccccc1)NC(=O)N1CCN(c2ccccc2)CC1	51.8 (≈ 147 µM)
Nc1[nH]c(=O)nc(Nc2ccccc2)c1N=O	> 34.7
COC(=O)c1c(C)[nH]c(C(=O)C(C)OC(=O)C2CC2)c1C (centres undefined)	39.7 (≈ 135 µM)
CN1CCN(c2nc3c(c(=O)[nH]2)CCC3)CC1	> 35.1
CC(C)C(=O)Nc1ccc(-c2nc3ncccc3o2)cc1	22.2 (≈ 78.9 µM)
COc1ccc(Nc2nc(NCC3CCCO3)nc(N)c2[N+](=O)[O-])cc1 (centres undefined)	1.7 (≈ 4.72 µM)
Cc1ccc(C(=O)NCC(=O)OCc2c(F)cccc2Cl)s1	9.2 (≈ 26.9 µM)
O=C(Nc1ccc(Cl)cc1)NC1CCCCNC1=O (centres undefined)	> 42.3
Cc1ccc(NC(=S)NCC(O)c2ccccc2)c(C)c1 (centres undefined)	44.3 (≈ 147 µM)
CCN1CCc2c(OCC(=O)N3CCC(C)CC3)cccc2C1=O	46.2 (≈ 140 µM)
CCC(C)(C)NC(=O)C(OC(=O)c1ccco1)c1ccccc1F (centres undefined)	22.1 (≈ 66.3 µM)
O=Cc1c(Cl)nc2ccccn2c1=O	> 31.3
CCC(=O)Nc1cc(-c2nc3ncccc3o2)ccc1Cl	13.8 (≈ 45.7 µM)
CCOc1ccccc1Nc1nc(N)nc(CN2CCCCC2C)n1 (centres undefined)	> 51.4
